Key:
Type in all cases: in vivo
[1] = test system: rice seedlings (hybrid rice variety ADT45) under heat stress; test: Transplant shock stress, visual assessment of damage severity, Kumbakonam trial; conditions: for Transplanting shock stress (8th day) / Transplanting shock stress (12th day) / Transplanting shock stress (4th day): Kumbakonam
From the text: (§1) Trials were setup in two locations in India to test the effect of compounds of formula I on tolerance of rice seedlings to heat stress during transplantation.
(§2) For each trial, hybrid rice variety ADT45 was sown in seedling boxes. A compound of formula (Ia) was applied by foliar spray in the form of an EC formulation, at various dose rates and seedling growth stages as shown in Table 1.
(§3) Transplanting took place at the […] growth stage. Transplant shock was used as an indicator of tolerance to heat stress, and was measured via visual assessment of damage severity on a scale of 0% (no damage) to 100% (dead plant); observations such as yellowing and leaf tip burning are indicators of damage. Transplant shock was also assessed by measuring NVDI values using a Green Seeker™ crop sensor, which measures the percentage green area. A low transplant shock stress rating and high NVDI rating indicate improved tolerance to transplant shock stress.
(§4) The trial was carried out between 7 May 2015 and 15 Jun. 2015, with transplanting on 29 May 2015. The mean maximum daily temperature during the trial period was 37.3° C., and mean minimum daily temperature during the trial period was 24.9° C. The mean temperature during the entire trial period was 31.1° C.

[2] = test system: rice seedlings (hybrid rice variety ADT45) under heat stress; test: NVDI by Green Seeker crop sensor, Kumbakonam trial; parameters: key: NVDI as percentage green area (Green Seeker)
From the text: as §1, §2, §3, §4

[3] = test system: rice seedlings (hybrid rice variety ADT45) under heat stress; test: Transplant shock stress, visual assessment of damage severity, Ramapuram trial; conditions: for Transplanting shock stress (8th day) / Transplanting shock stress (12th day) / Transplanting shock stress (4th day): Ramapuram
From the text: as §1, §2, §3
as §4, with “5 Aug.” for “7 May”, “9 Sep.” for “15 Jun.”, “15 Aug.” for “29 May”, “35.3°” for “37.3°”, “23.7°” for “24.9°”, “30.2°” for “31.1°”

rice under heat stress = test: Yield in 2016 trial (Trial 3)
[4] = treatment 2: 5 g ai/ha, Pigeon-breast
[5] = treatment 2: 5 g ai/ha, Pigeon-breast, scale 0% no damage to 100% dead plant
[6] = treatment 3: 10 g ai/ha, Pigeon-breast
[7] = treatment 4: 20 g ai/ha, Pigeon-breast
[8] = treatment 6: 10 g ai/ha, 2-leaf
[9] = treatment 7: 20 g ai/ha, 2-leaf
[10] = treatment 9: 10 g ai/ha, 3-leaf
[11] = treatment 10: 20 g ai/ha, 3-leaf
[12] = treatment 3: 10 g ai/ha, Sowing
[13] = treatment 5: 10 g ai/ha, 2-leaf
[14] = treatment 7: 10 g ai/ha, 3-leaf

Compound: COc1cccc(Nc2nc(F)nc3[nH]cnc23)c1 [Formula Ia]
- Tolerance to heat stress / transplant shock stress, comparison of treatments ([1]; Kumbakonam trial, treatments 5 and 6 (2-leaf growth stage, 5-10 g ai/ha)): giving the best results
- Transplanting shock stress (8th day) [1, 4]: 35%
- Transplanting shock stress (12th day) [1, 4]: 15%
- Transplanting shock stress (4th day) [1, 5]: 32%
- Transplanting shock stress (4th day) [1, 6]: 38%
- Transplanting shock stress (8th day) [1, 6]: 32%
- Transplanting shock stress (12th day) [1, 6]: 17%
- Transplanting shock stress (4th day) [1, 7]: 30%
- Transplanting shock stress (8th day) [1, 7]: 22%
- Transplanting shock stress (12th day) [1, 7]: 13%
- Transplanting shock stress (4th day) ([1]; treatment 5: 5 g ai/ha, 2-leaf): 15%
- Transplanting shock stress (8th day) ([1]; treatment 5: 5 g ai/ha, 2-leaf): 13%
- Transplanting shock stress (12th day) ([1]; treatment 5: 5 g ai/ha, 2-leaf): 7%
- Transplanting shock stress (4th day) [1, 8]: 30%
- Transplanting shock stress (8th day) [1, 8]: 22%
- Transplanting shock stress (12th day) [1, 8]: 10%
- Transplanting shock stress (4th day) [1, 9]: 35%
- Transplanting shock stress (8th day) [1, 9]: 37%
- Transplanting shock stress (12th day) [1, 9]: 22%
- Transplanting shock stress (4th day) ([1]; treatment 8: 5 g ai/ha, 3-leaf): 27%
- Transplanting shock stress (8th day) ([1]; treatment 8: 5 g ai/ha, 3-leaf): 32%
- Transplanting shock stress (12th day) ([1]; treatment 8: 5 g ai/ha, 3-leaf): 17%
- Transplanting shock stress (4th day) [1, 10]: 42%
- Transplanting shock stress (8th day) [1, 10]: 27%
- Transplanting shock stress (12th day) [1, 10]: 15%
- Transplanting shock stress (4th day) [1, 11]: 45%
- Transplanting shock stress (8th day) [1, 11]: 37%
- Transplanting shock stress (12th day) [1, 11]: 25%
- NVDI data (10 DAT) [2, 4]: 12
- NVDI data (15 DAT) [2, 4]: 19
- NVDI data (10 DAT) [2, 6]: 6
- NVDI data (15 DAT) [2, 6]: 19
- NVDI data (10 DAT) [2, 7]: 10
- NVDI data (15 DAT) [2, 7]: 20
- NVDI data (10 DAT) ([2]; treatment 5: 5 g ai/ha, 2-leaf): 13
- NVDI data (15 DAT) ([2]; treatment 5: 5 g ai/ha, 2-leaf): 22
- NVDI data (10 DAT) [2, 8]: 12
- NVDI data (15 DAT) [2, 8]: 20
- NVDI data (10 DAT) [2, 9]: 11
- NVDI data (15 DAT) [2, 9]: 19
- NVDI data (10 DAT) ([2]; treatment 8: 5 g ai/ha, 3-leaf): 10
- NVDI data (15 DAT) ([2]; treatment 8: 5 g ai/ha, 3-leaf): 19
- NVDI data (10 DAT) [2, 10]: 15
- NVDI data (15 DAT) [2, 10]: 18
- NVDI data (10 DAT) [2, 11]: 15
- NVDI data (15 DAT) [2, 11]: 20
- Tolerance to heat stress / transplant shock stress, comparison of treatments ([3]; Ramapuram trial, treatments 5 and 6 (2-leaf growth stage, 5-10 g ai/ha)): giving the best results
- Transplanting shock stress (8th day) [3, 4]: 12%
- Transplanting shock stress (12th day) [3, 4]: 13%
- Transplanting shock stress (4th day) [3, 5]: 4%
- Transplanting shock stress (4th day) [3, 6]: 3%
- Transplanting shock stress (8th day) [3, 6]: 7%
- Transplanting shock stress (12th day) [3, 6]: 17%
- Transplanting shock stress (4th day) [3, 7]: 4%
- Transplanting shock stress (8th day) [3, 7]: 8%
- Transplanting shock stress (12th day) [3, 7]: 20%
- Transplanting shock stress (4th day) ([3]; treatment 5: 5 g ai/ha, 2-leaf): 0%
- Transplanting shock stress (8th day) ([3]; treatment 5: 5 g ai/ha, 2-leaf): 2%
- Transplanting shock stress (12th day) ([3]; treatment 5: 5 g ai/ha, 2-leaf): 4%
- Transplanting shock stress (4th day) [3, 8]: 0%
- Transplanting shock stress (8th day) [3, 8]: 1%
- Transplanting shock stress (12th day) [3, 8]: 7%
- Transplanting shock stress (4th day) [3, 9]: 9%
- Transplanting shock stress (8th day) [3, 9]: 8%
- Transplanting shock stress (12th day) [3, 9]: 11%
- Transplanting shock stress (4th day) ([3]; treatment 8: 5 g ai/ha, 3-leaf): 7%
- Transplanting shock stress (8th day) ([3]; treatment 8: 5 g ai/ha, 3-leaf): 12%
- Transplanting shock stress (12th day) ([3]; treatment 8: 5 g ai/ha, 3-leaf): 13%
- Transplanting shock stress (4th day) [3, 10]: 13%
- Transplanting shock stress (8th day) [3, 10]: 20%
- Transplanting shock stress (12th day) [3, 10]: 31%
- Transplanting shock stress (4th day) [3, 11]: 23%
- Transplanting shock stress (8th day) [3, 11]: 37%
- Transplanting shock stress (12th day) [3, 11]: 34%
- Average yield increase compared to UTC (rice under heat stress; treatment 2: 5 g ai/ha, Sowing): +2.9%
- Yield at 14% MC (rice under heat stress; treatment 2: 5 g ai/ha, Sowing): 6799 kg/ha
- Average yield increase compared to UTC (rice under heat stress; [12]): −0.1%
- Yield at 14% MC (rice under heat stress; [12]): 6603 kg/ha
- Average yield increase compared to UTC (rice under heat stress; treatment 4: 5 g ai/ha, 2-leaf): +6.2%
- Yield at 14% MC (rice under heat stress; treatment 4: 5 g ai/ha, 2-leaf): 7014 kg/ha
- Average yield increase compared to UTC (rice under heat stress; [13]): +8.8%
- Yield at 14% MC (rice under heat stress; [13]): 7189 kg/ha
- Average yield increase compared to UTC (rice under heat stress; treatment 6: 5 g ai/ha, 3-leaf): +5.6%
- Yield at 14% MC (rice under heat stress; treatment 6: 5 g ai/ha, 3-leaf): 6978 kg/ha
- Average yield increase compared to UTC (rice under heat stress; [14]): +3.3%
- Yield at 14% MC (rice under heat stress; [14]): 6830 kg/ha

— US10798943B2, “Use of 6-anilino purine derivatives to improve heat stress tolerance of rice seedlings” (SYNGENTA PARTICIPATIONS AG, priority 2016, dated 2020)
